Results: PubChem BioAssay (NCI)
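In this assay, cells in 96-well plates receive the compound at five concentrations for 48 hours. Endpoints are linearly interpolated between the surrounding concentrations. Here, GI50 denotes the concentration required for 50% inhibition of growth. TGI: concentration producing complete growth inhibition.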

What was measured:
Experiment in all cases: DTP human tumour cell line panel, 48 h
M14 melanoma = tested on: M14 melanoma
SF-295 CNS = tested on: SF-295 CNS
MCF7 breast = tested on: MCF7 breast
SF-539 CNS = tested on: SF-539 CNS
T-47D breast = tested on: T-47D breast
A549 NSCLC = tested on: A549 NSCLC
NCI-H460 lung = tested on: NCI-H460 lung
A498 renal = tested on: A498 renal
SNB-75 CNS = tested on: SNB-75 CNS
BT-549 breast = tested on: BT-549 breast
KM12 colon = tested on: KM12 colon
OVCAR-8 ovarian = tested on: OVCAR-8 ovarian
HOP-62 NSCLC = tested on: HOP-62 NSCLC
EKVX NSCLC = tested on: EKVX NSCLC
NCI-H23 lung = tested on: NCI-H23 lung
OVCAR-4 ovarian = tested on: OVCAR-4 ovarian
PC-3 prostate = tested on: PC-3 prostate
UO-31 renal = tested on: UO-31 renal
SK-OV-3 ovarian = tested on: SK-OV-3 ovarian
LOX IMVI melanoma = tested on: LOX IMVI melanoma
CCRF-CEM leukemia = tested on: CCRF-CEM leukemia
SK-MEL-2 melanoma = tested on: SK-MEL-2 melanoma
HT29 colon = tested on: HT29 colon
MDA-MB-231 breast = tested on: MDA-MB-231 breast
HCT-116 colon = tested on: HCT-116 colon
NCI/ADR-RES ovarian = tested on: NCI/ADR-RES ovarian
HL-60(TB) leukemia = tested on: HL-60(TB) leukemia
UACC-257 melanoma = tested on: UACC-257 melanoma
RXF 393 renal = tested on: RXF 393 renal
MOLT-4 leukemia = tested on: MOLT-4 leukemia
SN12C renal = tested on: SN12C renal
SF-268 CNS = tested on: SF-268 CNS
UACC-62 melanoma = tested on: UACC-62 melanoma
SNB-19 CNS = tested on: SNB-19 CNS
ACHN renal = tested on: ACHN renal
RPMI-8226 leukemia = tested on: RPMI-8226 leukemia
K-562 leukemia = tested on: K-562 leukemia
TK-10 renal = tested on: TK-10 renal
OVCAR-3 ovarian = tested on: OVCAR-3 ovarian
SW-620 colon = tested on: SW-620 colon
MDA-MB-435 = tested on: MDA-MB-435
IGROV1 ovarian = tested on: IGROV1 ovarian
COLO 205 colon = tested on: COLO 205 colon
DU-145 prostate = tested on: DU-145 prostate
SK-MEL-28 melanoma = tested on: SK-MEL-28 melanoma
CAKI-1 renal = tested on: CAKI-1 renal
MALME-3M melanoma = tested on: MALME-3M melanoma
HCT-15 colon = tested on: HCT-15 colon
OVCAR-5 ovarian = tested on: OVCAR-5 ovarian
SK-MEL-5 melanoma = tested on: SK-MEL-5 melanoma
NCI-H522 lung = tested on: NCI-H522 lung
U251 CNS = tested on: U251 CNS
HS 578T breast = tested on: HS 578T breast
HCC-2998 colon = tested on: HCC-2998 colon
NCI-H226 lung = tested on: NCI-H226 lung
786-0 renal = tested on: 786-0 renal

Cc1ccc(C(=O)NC(C)C)cc1-c1ccc(C(=O)NCC2CC2)cc1
GI50 (M14 melanoma): > 25 µM
TGI (M14 melanoma): > 25 µM
GI50 (SF-295 CNS): > 25 µM
TGI (SF-295 CNS): > 25 µM
GI50 (MCF7 breast): > 25 µM
TGI (MCF7 breast): > 25 µM
GI50 (SF-539 CNS): > 25 µM
TGI (SF-539 CNS): > 25 µM
GI50 (T-47D breast): 16.5 µM
TGI (T-47D breast): > 25 µM
GI50 (A549 NSCLC): > 25 µM
TGI (A549 NSCLC): > 25 µM
GI50 (NCI-H460 lung): > 25 µM
TGI (NCI-H460 lung): > 25 µM
GI50 (A498 renal): > 25 µM
TGI (A498 renal): > 25 µM
GI50 (SNB-75 CNS): > 25 µM
TGI (SNB-75 CNS): > 25 µM
GI50 (BT-549 breast): > 25 µM
TGI (BT-549 breast): > 25 µM
GI50 (KM12 colon): > 25 µM
TGI (KM12 colon): > 25 µM
GI50 (OVCAR-8 ovarian): > 25 µM
TGI (OVCAR-8 ovarian): > 25 µM
GI50 (HOP-62 NSCLC): > 25 µM
TGI (HOP-62 NSCLC): > 25 µM
GI50 (EKVX NSCLC): > 25 µM
TGI (EKVX NSCLC): > 25 µM
GI50 (NCI-H23 lung): > 25 µM
TGI (NCI-H23 lung): > 25 µM
GI50 (OVCAR-4 ovarian): > 25 µM
TGI (OVCAR-4 ovarian): > 25 µM
GI50 (PC-3 prostate): > 25 µM
TGI (PC-3 prostate): > 25 µM
GI50 (UO-31 renal): > 25 µM
TGI (UO-31 renal): > 25 µM
GI50 (SK-OV-3 ovarian): > 25 µM
TGI (SK-OV-3 ovarian): > 25 µM
GI50 (LOX IMVI melanoma): > 25 µM
TGI (LOX IMVI melanoma): > 25 µM
GI50 (CCRF-CEM leukemia): > 25 µM
TGI (CCRF-CEM leukemia): > 25 µM
GI50 (SK-MEL-2 melanoma): > 25 µM
TGI (SK-MEL-2 melanoma): > 25 µM
GI50 (HT29 colon): > 25 µM
TGI (HT29 colon): > 25 µM
GI50 (MDA-MB-231 breast): > 25 µM
TGI (MDA-MB-231 breast): > 25 µM
GI50 (HCT-116 colon): > 25 µM
TGI (HCT-116 colon): > 25 µM
GI50 (NCI/ADR-RES ovarian): > 25 µM
TGI (NCI/ADR-RES ovarian): > 25 µM
GI50 (HL-60(TB) leukemia): > 25 µM
TGI (HL-60(TB) leukemia): > 25 µM
GI50 (UACC-257 melanoma): > 25 µM
TGI (UACC-257 melanoma): > 25 µM
GI50 (RXF 393 renal): > 25 µM
TGI (RXF 393 renal): > 25 µM
GI50 (MOLT-4 leukemia): > 25 µM
TGI (MOLT-4 leukemia): > 25 µM
GI50 (SN12C renal): > 25 µM
TGI (SN12C renal): > 25 µM
GI50 (SF-268 CNS): > 25 µM
TGI (SF-268 CNS): > 25 µM
GI50 (UACC-62 melanoma): > 25 µM
TGI (UACC-62 melanoma): > 25 µM
GI50 (SNB-19 CNS): > 25 µM
TGI (SNB-19 CNS): > 25 µM
GI50 (ACHN renal): > 25 µM
TGI (ACHN renal): > 25 µM
GI50 (RPMI-8226 leukemia): > 25 µM
TGI (RPMI-8226 leukemia): > 25 µM
GI50 (K-562 leukemia): > 25 µM
TGI (K-562 leukemia): > 25 µM
GI50 (TK-10 renal): > 25 µM
TGI (TK-10 renal): > 25 µM
GI50 (OVCAR-3 ovarian): > 25 µM
TGI (OVCAR-3 ovarian): > 25 µM
GI50 (SW-620 colon): > 25 µM
TGI (SW-620 colon): > 25 µM
GI50 (MDA-MB-435): > 25 µM
TGI (MDA-MB-435): > 25 µM
GI50 (IGROV1 ovarian): > 25 µM
TGI (IGROV1 ovarian): > 25 µM
GI50 (COLO 205 colon): > 25 µM
TGI (COLO 205 colon): > 25 µM
GI50 (DU-145 prostate): > 25 µM
TGI (DU-145 prostate): > 25 µM
GI50 (SK-MEL-28 melanoma): > 25 µM
TGI (SK-MEL-28 melanoma): > 25 µM
GI50 (CAKI-1 renal): > 25 µM
TGI (CAKI-1 renal): > 25 µM
GI50 (MALME-3M melanoma): > 25 µM
TGI (MALME-3M melanoma): > 25 µM
GI50 (HCT-15 colon): > 25 µM
TGI (HCT-15 colon): > 25 µM
GI50 (OVCAR-5 ovarian): > 25 µM
TGI (OVCAR-5 ovarian): > 25 µM
GI50 (SK-MEL-5 melanoma): > 25 µM
TGI (SK-MEL-5 melanoma): > 25 µM
GI50 (NCI-H522 lung): > 25 µM
TGI (NCI-H522 lung): > 25 µM
GI50 (U251 CNS): > 25 µM
TGI (U251 CNS): > 25 µM
GI50 (HS 578T breast): > 25 µM
TGI (HS 578T breast): > 25 µM
GI50 (HCC-2998 colon): > 25 µM
TGI (HCC-2998 colon): > 25 µM
GI50 (NCI-H226 lung): > 25 µM
TGI (NCI-H226 lung): > 25 µM
GI50 (786-0 renal): > 25 µM
TGI (786-0 renal): > 25 µM
